In publication PMC6259458, “Investigating the Spectrum of Biological Activity of Ring-Substituted Salicylanilides and Carbamoylphenylcarbamates” (Molecules, 2010):
In brackets after ≈: the same amount, converted by molar mass. Several values for one entry are separate records, joined by “and”; a condition that tells them apart may be missing. Equal entries are not always repeated. Where two headings read alike, the source gives them in different places.

Columns and labels:
[1] = test system: photosynthetic electron transport (PET) in spinach chloroplasts; experiment: Inhibition of photosynthetic electron transport (PET) in spinach chloroplasts, DCPIP photoreduction; type: biochemical, Spinacia oleracea L.; conditions: DCPIP photoreduction, pH 7.2
Procedure: Chloroplasts were prepared from spinach (Spinacia oleracea L.) according to Masarovicova and Kralova. The inhibition of photosynthetic electron transport (PET) in spinach chloroplasts was determined spectrophotometrically (Genesys 6, Thermo Scientific, USA), using an artificial electron acceptor 2,6-dichlorophenol-indophenol (DCIPP) according to Kralova et al., and the rate of photosynthetic electron transport was monitored as a photoreduction of DCPIP. The measurements were carried out in phosphate buffer (0.02 mol/L, pH 7.2) containing sucrose (0.4 mol/L), MgCl2 (0.005 mol/L) and NaCl (0.015 mol/L). The chlorophyll content was 30 mg/L in these experiments and the samples were irradiated (~100 W/m^2) from 10 cm distance with a halogen lamp (250 W) using a 4 cm water filter to prevent warming of the samples (suspension temperature 22 °C). The studied compounds were dissolved in DMSO due to their limited water solubility.

[2] = Lipophilicity determination by RP-HPLC (capacity factor k / log k); type: physicochemical; conditions: C18 column, MeOH 70% / H2O 30%, isocratic
Procedure: Hydrophobicities (log P/Clog P) of the compounds 1-5 and 8-14 were calculated using two commercially available programs (ChemDraw Ultra 10.0 and ACD/LogP) and also measured by means of the RP-HPLC determination of capacity factors k with subsequent calculation of log k. The procedure was performed under isocratic conditions with methanol as an organic modifier in the mobile phase using an end-capped non-polar C18 stationary RP column. The results are shown in Table 1 and illustrated in Figure 1.
A Waters Alliance 2695 XE HPLC separation module and a Waters Photodiode Array Detector 2996 (Waters Corp., Milford, MA, USA) were used. A Symmetry® C18 5 μm, 4.6 × 250 mm, Part No. WAT054275 (Waters Corp., Milford, MA, USA) chromatographic column was used. The HPLC separation process was monitored by Empower™ 2 Chromatography Data Software, Waters 2009 (Waters Corp., Milford, MA, USA). A mixture of MeOH p.a. (70%) and H2O-HPLC – Mili-Q Grade (30%) was used as a mobile phase. The total flow of the column was 1.0 mL/min, injection volume 30 μL, column temperature 30 °C and sample temperature 10°C. The detection wavelength of 210 nm was chosen. The KI methanolic solution was used for the dead time (tD) determination. Retention times (tR) were measured in minutes. The capacity factors k were calculated using the Empower™ 2 Chromatography Data Software according to formula k = (tR - tD)/tD, where tR is the retention time of the solute, whereas tD denotes the dead time obtained using an unretained analyte. Log k, calculated from the capacity factor k, is used as the lipophilicity index converted to log P scale.

[3] = test system: M. avium paratuberculosis ATCC19698; experiment: In vitro anti-mycobacterial evaluation, alamarBlue; type: cell-based; conditions: 7 days, NA = no significant activity
[4] = test system: Trichophyton mentagrophytes 445; experiment: In vitro anti-fungal susceptibility, broth microdilution; type: cell-based; conditions: MIC = IC50 value, NA = no significant activity
Procedure: (§1) The broth microdilution test was used for the assessment of in vitro anti-fungal activity of the synthesized compounds against Absidia corymbifera 272 (AC) and Trichophyton mentagrophytes 445 (TM). Fluconazole (FLU) was used as the standard since it is a clinically used anti-mycotic drug. The procedure was performed with a two-fold dilution of the compounds in […]., Prague, Czech Republic) buffered to pH 7.0 with 0.165 mol of 3-morpholino-propane-1-sulfonic acid (MOPS, Sigma, Germany). […] Drug-free controls were included. […] The values of the minimum inhibitory concentration (MICs) were determined after 24 and 48 h of static incubation at 35 °C. For T. mentagrophytes, the final MICs were determined after 72 and 120 h of incubation.

Absidia corymbifera 272 = experiment: as above; type: cell-based
Procedure: as §1

[5] = set-up: method as in PMID 1151976; conditions: parameter of the substituents in the anilide part; cited from earlier work
[6] = test system: Staphylococcus epidermidis H 6966/08; experiment: In vitro anti-bacterial susceptibility, Mueller-Hinton broth; type: cell-based; conditions: MIC = IC90 value, NA = no significant activity
[7] = test system: methicilin resistant Staphylococcus aureus H 5996/08; experiment: as above; type: cell-based; conditions: MRSA, methicillin-resistant Staphylococcus aureus, MIC = IC90 value, NA = no significant activity
[8] = test system: Mycobacterium avium complex CIT19/06; experiment: In vitro anti-mycobacterial evaluation, alamarBlue; conditions: 5 days, NA = no significant activity
Procedure: (§2) Clinical isolates of Mycobacterium avium complex CIT19/06 (MAC), M. avium paratuberculosis ATCC19698 (MAP), and M. kansasii CIT11/06 (MK) were grown in Middlebrook broth (MB), supplemented with Oleic, Albumin, Dextrose, Catalase supplement (OADC, Becton Dickinson, UK). […] At log phase growth, culture (10 mL) was centrifuged at 15,000 rpm/20 min using a bench top centrifuge (Model CR 4-12 Jouan Inc., UK). Following removal of the supernatant, the pellet was washed in fresh Middlebrook 7H9GC broth and re-suspended in fresh supplemented MB (10 mL). The turbidity was adjusted to match McFarland standard No. 1 (3 × 10^8 cfu) with MB broth. A further 1:20 dilution of the culture was then performed in MB broth.
(§3) The anti-microbial susceptibility of all three mycobacterial species was investigated in a 96-well plate format. […] Each evaluated compound (100 µL) was incubated with each of the mycobacterial species (100 µL). […] Following incubation, a 10% addition of alamarBlue (AbD Serotec) was mixed into each well and readings at 570 nm and 600 nm were taken, initially for background subtraction and subsequently after 24 h re-incubation. […] For non-interfering compounds, a blue colour in the well was interpreted as an absence of growth and a pink colour was scored as growth. […]

M. kansasii CIT11/06 = experiment: In vitro anti-mycobacterial evaluation, alamarBlue; conditions: 5 days, NA = no significant activity
Procedure: as §2, §3

[9] = test system: photosynthetic apparatus of spinach chloroplasts; experiment: EPR spectra of treated spinach chloroplasts; type: biochemical, Spinacia oleracea L.; conditions: 0.05 M of compound, under irradiation, versus untreated chloroplasts
Procedure: Experiments were then performed to determine the site of action of the studied compounds in the photosynthetic apparatus. In Figure 2, EPR spectra of untreated chloroplasts and those treated with the very effective PET inhibitor, compound 3 (Table 2), are presented. The EPR spectrum of untreated chloroplasts recorded in the dark consists of the typical signal IIslow (g = 2.0046, ΔBpp= 2 mT, see Figure 2A - full line). An increase of EPR signal intensity in the light represents signal IIvery fast (g = 2.0046, ΔBpp= 2 mT; in Figure 2A it is the difference between dotted and full lines). These EPR signals belong to the intermediates D^• and Z^• respectively, which are tyrosine radicals situated in the 161st positions in D2 (for D) and D1 (for Z) proteins at the donor side of PS 2 [48, 49]. […]
EPR spectra were registered by the equipment ERS 230 (ZWG, Acad. Sci., Berlin, Germany), which operates in X-band (~9.3 GHz), with modulation amplitude 0.5 mT and microwave power 5 mW at room temperature. The samples containing chlorophyll (3.2 g/L) were measured in a flat quartz cell and their irradiation (~400 μE/m^2s PAR) was carried out directly in the resonance cavity with a 250 W halogen lamp from 0.5 m distance through 5 cm water filter.

[10] = test system: photosynthetic apparatus of spinach chloroplasts (PS 2 / PS 1); experiment: Site of action: restoration of PET by artificial electron donors (DPC, DCPIPH2); type: biochemical, Spinacia oleracea L.
Procedure: To further determine the site of action of the studied compounds, experiments with 1,5-diphenylcarbazide (DPC) were performed. DPC is an artificial electron donor for PS 2 with a known site of action in the Z^•/D^• intermediate. The site of action of the artificial electron acceptor 2,6-dichlorophenol-indophenol (DCPIP) used for monitoring the Hill reaction is plastoquinone on the acceptor side of PS 2 [51]. Thus, if the part of the photosynthetic electron transport chain between manganese cluster and Z/D is inhibited, then DPC will restore PET through PS 2.

[11] = test system: photosynthetic electron transport (PET) in spinach chloroplasts; set-up: method as in earlier work; conditions: standard, read-out: PET inhibition IC50; cited from earlier work
[12] = Lichtheimia corymbifera, 272, 24 h, read-out: MIC AC 24 h
[13] = Lichtheimia corymbifera, 272, 48 h, read-out: MIC AC 48 h
[14] = H6966/08, 24 h, read-out: MIC SE 24 h
[15] = H6966/08, 48 h, read-out: MIC SE 48 h

Compound	IC50 [1]	log k [2]	MIC/IC90 MAP [3]	MIC ([4]; 72 h, read-out: MIC TM 72 h)	MIC ([4]; 120 h, read-out: MIC TM 120 h)	MIC (Absidia corymbifera 272; [12])	MIC (Absidia corymbifera 272; [13])	MR (bulk parameter, reflecting bulkiness) [5]	σ (Hammett's parameter) [5]	MIC [6, 14]	MIC [6, 15]	MIC ([7]; 24 h, read-out: MIC MRSA 24 h)	MIC ([7]; 48 h, read-out: MIC MRSA 48 h)	MIC/IC90 MAC [8]	MIC/IC90 MK (M. kansasii CIT11/06)	intensity of the EPR signal (signal I) in irradiated chloroplasts [9]	restoration of PET through PS 1 after addition of DCPIPH2 ([10]; DCPIPH2 40 μmol/L added to treated chloroplasts)	restoration of PET through PS 2 after addition of DPC ([10]; DPC 2 mmol/L added to treated chloroplasts)	IC50 [11]
Cc1ccccc1NC(=O)c1ccccc1O [Compound 1, 2-Hydroxy-N-(2-methylphenyl)benzamide]	2700 nM	0.6661	250 µg/mL (≈ 1100 µM)	62.5 µM (≈ 14.2 µg/mL)	125 µM (≈ 28.4 µg/mL)	62.5 µM (≈ 14.2 µg/mL)	250 µM (≈ 56.8 µg/mL)	4.7	0.10	125 µM (≈ 28.4 µg/mL)	250 µM (≈ 56.8 µg/mL)	125 µM (≈ 28.4 µg/mL)	250 µM (≈ 56.8 µg/mL)	250 µg/mL (≈ 1100 µM)	125 µg/mL (≈ 550 µM)				
COc1ccccc1NC(=O)c1ccccc1O [Compound 3, 2-Hydroxy-N-(2-methoxyphenyl)benzamide]	1600 nM	0.6770		125 µM (≈ 30.4 µg/mL)	125 µM (≈ 30.4 µg/mL)	125 µM (≈ 30.4 µg/mL)	125 µM (≈ 30.4 µg/mL)	6.5	0.00	> 500 µM	> 500 µM	500 µM (≈ 122 µg/mL)	> 500 µM			marked increase	completely restored	not restored	
CN(C)C(=O)Nc1ccc(Cl)c(Cl)c1 [DCMU, 3-(3,4-dichlorophenyl)-1,1-dimethylurea]																			~1900 nM and 1900 nM
NNC(=O)c1ccncc1 [INH, Isoniazid, reference compound]			>250 µg/mL											<10 µg/mL	<10 µg/mL				
